# Reference: US9163049B2, “Medicament comprising a reducing alkyl-sugar monomer for the treatment of inflammatory disorders” (PIERRE FABRE DERMO-COSMETIQUE, priority 2003, dated 2015)
# Experiments:
# [1] = tested on: PGE2 released by the NHK stimulated by PMA; experiment: Assay of the PGE2 released by the NHK stimulated by PMA; type: cell-based, human; conditions: for Percentage of inhibition of the release of PGE2: NHK + PMA 1 ng/ml, 24 hours
# Protocol: Assay of the PGE2 released by the NHK stimulated by PMA.
# Alkyl-rhamnosides were evaluated as an inhibitor of the release of PGE2 in cellular supernatants. These products were placed in the presence of the NHK at the same time as the PMA at 1 ng/ml. Each condition tested was evaluated for stimulation on 4 wells of NHK.
# The results summarized in Table 5 below represent the mean PGE2 concentration values (pg/ml), after 24 hours of treatment, given in each of the cellular supernatants, stimulated or not, and reported in a quantity of cells expressed in μg.
# keratinocytes = experiment: Toxicity test: viability of keratinocytes; type: cell-based; conditions: for % viability: compared to control 100%
# Source text: (§1) MTT [3-(4,5-[…])-2,5-diphenyl tetrazolium bromide] Reduction Technique (Sold by Sigma).
# (§2) This technique corresponds to a colorimetric test allowing quantification of living, metabolically active cells in a non-radioactive manner. MTT is a cationic molecule which is bound to the membranes of mitochondria in a potential-dependant fashion. On the level of the mitochondria, MTT will be reduced to formazan blue by mitochondrial dehydrogenase. The living cells are thus colored blue, in contrast with the dead cells which remain transparent. The measure of viability is then carried out by measurement of the optical density using an automatic reader.
# XTT Tetrazolium Salt Reduction Technique.
# This is a technique allowing quantification of cellular proliferation and of the number of living (metabolically active) cells, without the incorporation of radioactive isotopes. XTT, yellow in color, is a cationic molecule which is bound to the membranes of mitochondria in a potential-dependant fashion, as does MTT.
# On the level of the mitochondria, XTT will be reduced to formazan (orange) by mitochondrial tetrazolium reductase. […] Indeed, the reduction product is soluble within the cell. The method is thus faster. Living cells, in the absence and presence of a treatment become colored, in contrast with dead cells which remain colorless. The level of formazan product is detected with the spectrophotometer at a wavelength of 450 nm and is directly proportional to the number of metabolically active cells.
# Keratinocytes were isolated and placed in culture from human skin biopsies arising from anonymous donors following a plastic surgery procedure. Measurements of optical density (absorbance) of the 4 wells treated with the same product concentration were averaged. This average was compared with the average of the measurements obtained for the 4 control wells (Student's t-test comparison of means significant difference at 95% if p<0.05 and 99% if p<0.01).
# The viabilities of the treated cells are expressed as a percentage compared to the control (untreated cells) of 100% (OD treated/OD control×100).
# [2] = tested on: HSkMEC activated with TNF-α; experiment: Adhesion between lymphocytes and TNF-α activated endothelial cells (HSkMEC); type: cell-based; conditions: for Control/TNF ratio / adhesion between lymphocytes and endothelial cells, TNF: HSkMEC; for adhesion between lymphocytes and endothelial cells, TNF: control in medium = 1.000
# Protocol: (§3) The influence of alkyl-rhamnosides on adhesion between lymphocytes and […] endothelial cells, in particular the line of endothelial cells arising from the skin (HSkMEC), was evaluated. These cells were placed in the presence of a strong activator, TNF-α.
# (§4) Adhesion is carried out in vitro under static conditions. The endothelial cells were cultured in wells in order to obtain a monolayer. The cells were pretreated for 5 hours in the presence or absence of alkyl-rhamnosides. As dodecyl-rhamnoside required a content of 0.1% by volume to be soluble in the culture media, a control containing 0.1% glycerol was also analyzed.
# (§5) The suspension of labeled lymphocytes was at a concentration making it possible to obtain a ratio of 5 lymphocytes per endothelial cell. Adhesion was carried out for 30 minutes at ambient temperature. The label binds irreversibly to the lipids of the plasma membrane of the cells without affecting the biological properties of the membrane or cellular viability.
# (§6) The adhesion of the lymphocytes on the endothelial cells was quantified by flow cytometry.
# The results of adhesion between lymphocytes and activated endothelial cells, summarized in Table 5 below, arise from groups of three adhesion tests.
# HAPEC = experiment: Adhesion of lymphocytes on non-activated endothelial cells HAPEC; type: cell-based
# Protocol: as §4, §5, §6
# HSkMEC = experiment: Adhesion of lymphocytes on non-activated endothelial cells HSkMEC; type: cell-based; conditions: for adhesion between lymphocytes and endothelial cells, Medium: HSkMEC, Medium (no TNF), control = 1.000
# Protocol: as §3, §4, §5, §6
# HMLNEC = experiment: Adhesion of lymphocytes on non-activated endothelial cells HMLNEC; type: cell-based
# Protocol: as §4, §5, §6
# HPLNEC.B3 = experiment: Adhesion of lymphocytes on non-activated endothelial cells HPLNEC.B3; type: cell-based
# Protocol: as §4, §5, §6
# HBrMEC = experiment: Adhesion of lymphocytes on non-activated endothelial cells HBrMEC; type: cell-based
# Protocol: as §4, §5, §6
# [3] = tested on: endothelial cells (appendix, brain microvascular, mesenteric lymphatic ganglia, peripheral lymphatic ganglia, skin microvascular); experiment: Cytotoxicity test (MTT) on endothelial cell lines; type: cell-based
# Source text: as §1, §2
# Endothelial cells were placed in culture, immortalized and stabilized in their phenotype. The cell lines studied were appendix endothelial cells, brain microvascular endothelial cells, mesenteric lymphatic ganglia endothelial cells, peripheral lymphatic ganglia endothelial cells and skin microvascular endothelial cells.
# The cytotoxicity test was carried out by means of a biochemical test on the transformation of a tetrazolium salt, MTT. […] Viability is indeed always greater than 85%, and this is true for all of the cells lines studied.
# [4] = tested on: proliferation of lymphocytes in auricular lymphatic ganglia; experiment: Sensitizing capacity by the LLNA method (local lymph node assay)
# Source text: (§7) This test determines the sensitizing capacity of the test substance by measuring the proliferation of lymphocytes in auricular lymphatic ganglia. The proliferation of lymphocytes will be measured by determining the incorporation of tritiated methyl thymidine.
# [5] = tested on: proliferation of lymphocytes in auricular lymphatic ganglia; conditions: in vivo
# Source text: as §7
# reconstituted epidermis = experiment: Cutaneous irritant potential on reconstituted epidermis; type: cell-based; conditions: Rh-C5 concentration 30%, Triton 4%
# Source text: The evaluation of cutaneous irritant potential on reconstituted epidermis is an alternative to animal experimentation. The principle is based on the evaluation of the irritant potential of the product tested by: • the study of cytotoxicity by quantification of the release of lactate dehydrogenase (LDH) and by reduction of MTT to […], • the study of inflammation markers by quantification of the release of interleukins and IL8.
molecule,measurement,setting,value
"CCCCCCCCCCCOC1O[C@@H](C)[C@H](O)[C@@H](O)[C@H]1O (stereo partly shown) [Rh-C11, undecyl-rhamnoside]",Percentage of inhibition of the release of PGE2,[1]; 0.01 mg/ml,28%
same,Percentage of inhibition of the release of PGE2,[1]; 0.02 mg/ml,28%
same,activity (inhibition of PGE2 release),[1]; in the range of 20 μg/ml,activity comparable to pentyl-rhamnoside
same,% viability,keratinocytes; 10 μg/ml,81%
same,% viability,keratinocytes; 100 μg/ml,17%
same,% viability,keratinocytes; 250 μg/ml,11%
same,% viability,keratinocytes; 500 μg/ml,30%
octadecyl-rhamnose [Rh-C18],Percentage of inhibition of the release of PGE2,[1]; 0.02 mg/ml,2%
CCCCCCCCCCCCOC1O[C@@H](C)[C@H](O)[C@@H](O)[C@H]1O (stereo partly shown) [dodecyl-rhamnoside],inhibition of adhesion,"[2]; 1.5 μM, endothelial cells",63%
same,Control/TNF ratio,[2],0.59
same,"adhesion between lymphocytes and endothelial cells, TNF",[2],1.900
same,increase in adhesion of lymphocytes,HAPEC; 1.5 mM,44.1%
same,decrease of the adhesion of lymphocytes,"HSkMEC; 1.5 mM, non-activated HSkMEC",34.2%
same,"adhesion between lymphocytes and endothelial cells, Medium",HSkMEC,3.200
same,effect on adhesion of lymphocytes,HMLNEC; 1.5 mM,no effect
same,effect on adhesion of lymphocytes,HPLNEC.B3; 1.5 mM,no effect
same,effect on adhesion of lymphocytes,HBrMEC; 1.5 mM,no effect
"CCCCCOC1O[C@@H](C)[C@H](O)[C@@H](O)[C@H]1O (stereo partly shown) [Rh-C5, pentyl-rhamnoside]",Control/TNF ratio,[2],1.6
same,"adhesion between lymphocytes and endothelial cells, TNF",[2],3.100
same,Viability,[3]; all of the cells lines studied,greater than 85%
same,toxicity,[3]; endothelial cell lines,no toxicity
same,effect on adhesion of lymphocytes,HAPEC; 1.1 mM,no effect or a very slight effect
same,DPM/Ganglion,[4]; Concentration 1: 3%,1240.2 DPM/Ganglion
same,RATIO,[4]; Concentration 1: 3%,0.7
same,DPM/Ganglion,[4]; Concentration 2: 15%,1041.1 DPM/Ganglion
same,RATIO,[4]; Concentration 2: 15%,0.6
same,DPM/Ganglion,[4]; Concentration 3: 30%,797.3 DPM/Ganglion
same,RATIO,[4]; Concentration 3: 30%,0.5
same,inhibiting effect on the adhesion of lymphocytes compared to rhamnose,"HSkMEC; 1.1 mM, non-activated HSkMEC",37.3%
same,"adhesion between lymphocytes and endothelial cells, Medium",HSkMEC,1.900
same,increase in adhesion of lymphocytes compared to rhamnose,HMLNEC; 1.1 mM,96.7%
same,increase in adhesion of lymphocytes,HPLNEC.B3; 1.1 mM,37.9%
same,Percentage of inhibition of the release of PGE2,[1]; 0.02 mg/ml,29%
same,Percentage of inhibition of the release of PGE2,[1]; 0.05 mg/ml,61%
same,Percentage of inhibition of the release of PGE2,[1]; 0.1 mg/ml,64%
same,Percentage of inhibition of the release of PGE2,[1]; 1 mg/ml,89%
same,Conclusion (sensitizing capacity),[5],Not sensitizing
same,sensitizing capacity,[5],not sensitizing
same,effect on adhesion of lymphocytes,HBrMEC; 1.1 mM,no effect or a very slight effect
same,concentrations at which cytotoxicity is exhibited,keratinocytes,greater than 2 mg/ml
same,% viability,keratinocytes; 0.1 mg/ml,94%
same,% viability,keratinocytes; 1 mg/ml,74%
same,% viability,keratinocytes; 2 mg/ml,53%
same,% viability,keratinocytes; 5 mg/ml,40%
"C[C@H](O)[C@H](O)[C@@H](O)[C@@H](O)C=O [Rhamnose, rhamnose, reference compound]",Control/TNF ratio,[2],1.5
same,"adhesion between lymphocytes and endothelial cells, TNF",[2],2.450
same,"adhesion between lymphocytes and endothelial cells, Medium",HSkMEC,1.630
same,% viability,keratinocytes; 0.001 mg/ml,95%
same,% viability,keratinocytes; 0.01 mg/ml,100%
same,% viability,keratinocytes; 0.1 mg/ml,98%
same,% viability,keratinocytes; 1 mg/ml,104%
same,cytotoxicity,keratinocytes; even for the highest concentrations,does not exhibit cytotoxicity
Triton [reference compound],IL1α ratio,reconstituted epidermis; 24 hours of application,36.0
same,IL8 ratio,reconstituted epidermis; 24 hours of application,3.7
same,LDH ratio,reconstituted epidermis; 24 hours of application,124.7
same,MTT % viability,reconstituted epidermis; 24 hours of application,3.0%
same,IL1α ratio,reconstituted epidermis; 72 hours of application,7.2
same,IL8 ratio,reconstituted epidermis; 72 hours of application,0.9
same,LDH ratio,reconstituted epidermis; 72 hours of application,77.3
same,MTT % viability,reconstituted epidermis; 72 hours of application,1.5%
same,Classification (cutaneous irritant potential),reconstituted epidermis,irritant
